# Source: patent publication US12403127B2, “Specifically meso-substituted porphyrins and chlorins for photodynamic therapy” (biolitec Unternehmensbeteiligungs II AG, priority 2014, dated 2025)
# Assays:
# [1] = system: HT29 (human colon adenocarcinoma cell line); experiment: Cell test of photosensitizing activity (XTT cell viability after 652 nm laser irradiation) in HT29; type: cell-based; settings: 2 or 10 μM photosensitizer, 24 h incubation, 50 J/cm^2, XTT viability 24 h after irradiation
# Method: (§1) The photosensitizing activity was determined in the following cell lines: • HT29 (human colon adenocarcinoma cell line) • L929 (mouse fibroblast cell line) • A431 (human epidermoid carcinoma cell line) • A253 (submaxillary salivary gland, epidermoid cell line) • CAL-27 (human tongue squamous cell carcinoma cell line).
# (§2) The cell lines were grown in DMEM (PAA Laboratories GmbH) supplemented with 10% heat-inactivated fetal calf serum (FCS, PAA Laboratories GmbH), 1% penicillin (10000 IU) and streptomycin (10000 μg/ml, PAA Laboratories GmbH). Cells were kept as a monolayer culture in a humidified incubator (5% CO2 in air at 37° C.).
# (§3) A photosensitizer stock solution (2 mM) was performed in DMSO and was kept in the dark at 4° C. Further dilution was performed in DMEM medium without phenol red supplemented with 10% FCS to reach a final photosensitizer concentration of 2 or 10 μM, respectively.
# (§4) 2·10^4 cells/ml were seeded in micro plates ([…]). Cells were incubated with fresh medium (DMEM without phenol red) containing 10% FCS with 2 or 10 μM of the photosensitizer for 24 h before light exposure. […]
# (§5) The cell viability was assessed by the XTT assay. […]
# (§6) The absorbance of the samples was measured with a spectrophotometer (Infinite 200, Tecan Group Ltd.) at a wavelength of 490 nm. In order to measure reference absorbance (to measure non-specific readings) a wavelength of 630-690 nm was used.
# [2] = system: CAL-27 (human tongue squamous cell carcinoma cell line); experiment: Cell test of photosensitizing activity (XTT cell viability after 652 nm laser irradiation) in CAL-27; type: cell-based; settings: 2 or 10 μM photosensitizer, 24 h incubation, 50 J/cm^2, XTT viability 24 h after irradiation
# Method: as §1, §2, §3, §4, §5, §6
substance,measurement,setting,value
"5,10,15-tris-(3-hydroxy-phenyl)-20-[4-(butyloxy)-tetra-fluorphenyl]-porphyrin [Example 7.13]","photodynamic activity (photo toxicity, ""Laser"") in the HT29 cell line",[1],lack activity
same,PDT activity against CAL-27 cells,[2],show PDT activity
